Reference: US7279293B2 (priority 2002, dated 2007)
Entries after “also recorded” stand apart in the source; their conditions may differ.

What was measured:
Assay type in all cases: cell-based
[1] = tested on: wild type mouse H3 receptor and mouse H3 receptor mutants MT1, MT2, MT3, MT5, MT6; settings: 10 μM forskolin
Procedure: (§1) Wild type mouse H3 receptor cDNA and the five mouse H3 receptor mutant cDNAs were each transfected into cell line HEK293, and screened with G418 to obtain their respective stable clones. Northern analysis was used to check expression levels, and stable clones with roughly equal expression levels were used in the experiment.
(§2) Since H3 receptors are Gi-binding-type G protein-coupled receptors, cAMP levels were measured using ELISA. More specifically, 10^5 cells per well were cultured in a 24-well plate the day before testing. On the day of the test, cells were cultured for 15 minutes in the absence of serum, and then treated for 15 minutes with 0.5 mM IBMX. Forskolin (10 μM), histamine (10^−11 M to 10^−6 M) and thioperamide (10^−10 M to 10^−5 M) were respectively added, and the cells were treated for 15 minutes. The cAMP Enzyme Immunoassay (EIA) System (Amersham) was used to measure cAMP. The cells were lysed with 150 μl of lysing reagent 1B, provided with the kit. 5 μl of the cell lysate and rabbit anti-cAMP antibody were reacted by being allowed to stand undisturbed at 4° C. for two hours on an antibody-immobilized plate. Moreover, enzyme-labeled antibody was added and reacted by being allowed to stand undisturbed at 4° C. for one hour. The plate was washed with buffer, and enzyme substrate solution was then added and reacted by being allowed to stand undisturbed at room temperature for about 30 minutes. The reaction was stopped with 1 N sulfuric acid, and optical absorbance was then measured. A standard curve was produced from the optical absorbances of standard cAMP solutions, and cAMP levels were determined.

[2] = biological target: T1, MT6 clone (constitutively active mouse H3 receptor mutant) (Mus musculus, UniProt P58406, A357K); assay: cAMP levels by ELISA (cAMP EIA) in the HEK293 MT6 clone, with 10 μM forskolin; settings: thioperamide with 10 μM forskolin; MT6 clone versus wild type H3
T1 construct: expressed in transfected cells
T1 sequence (P58406 whole entry A357K): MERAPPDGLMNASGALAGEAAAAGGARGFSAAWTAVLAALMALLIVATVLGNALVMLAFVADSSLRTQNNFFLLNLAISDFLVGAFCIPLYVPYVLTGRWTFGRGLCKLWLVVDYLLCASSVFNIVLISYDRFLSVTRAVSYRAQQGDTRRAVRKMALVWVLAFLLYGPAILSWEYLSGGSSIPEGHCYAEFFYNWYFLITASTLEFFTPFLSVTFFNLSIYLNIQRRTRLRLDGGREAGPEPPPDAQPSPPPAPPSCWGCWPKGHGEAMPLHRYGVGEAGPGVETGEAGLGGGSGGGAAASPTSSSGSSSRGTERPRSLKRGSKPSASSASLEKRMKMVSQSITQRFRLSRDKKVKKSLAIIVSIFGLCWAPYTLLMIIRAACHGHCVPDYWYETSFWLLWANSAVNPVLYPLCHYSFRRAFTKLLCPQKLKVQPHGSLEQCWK
Procedure: as §1
as §2, with “Moreover, enzyme-labeled antibody was added and reacted by being allowed to stand undisturbed at 4° C. for one hour. The plate was washed with buffer, and enzyme substrate solution was then added and reacted by being allowed to stand undisturbed at room temperature for about 30 minutes.” left out

[3] = biological target: T2, wild type mouse H3 receptor and mouse H3 receptor mutants MT1, MT2, MT3, MT5, MT6 (Mus musculus, UniProt P58406, A357K)
T2 construct: expressed in transfected cells
T2 sequence (P58406 whole entry A357K): as above
Procedure: as §1, §2

pertussis toxin [PTX]
effect of PTX on the cAMP increases caused by thioperamide ([1]; wild type H3 and MT6 clones, PTX 100 ng/ml for 18 hours): inhibited the increases in cAMP caused by thioperamide

S=C(NC1CCCCC1)N1CCC(c2cnc[nH]2)CC1 [thioperamide]
cAMP increase in MT6 clone compared to the wild type [2]: about five-fold
change in cAMP levels caused by thioperamide [3]: increase with increased doses of thioperamide; also recorded: increase cAMP levels dose-dependently

NCCc1c[nH]cn1 [histamine]
change in cAMP levels caused by histamine ([1]; all clones, histamine 10^-11 M to 10^-6 M, 15 minutes, FIG. 4): decrease in a histamine dose-dependent manner; also recorded: decreased histamine dose-dependently
